Reference: patent publication US20230355597A1, “COMPOUNDS, COMPOSITIONS, AND METHODS FOR THE TREATMENT AND PREVENTION OF AVIAN PATHOGENIC E. COLI (APEC)” (OHIO STATE INNOVATION FOUNDATION, priority 2018, published 2023)
≈ marks a conversion by molar mass, not a printed value. Marks after values point to notes of the source that are not given here.

Legend:
[1] = system: QS and virulence associated genes of APEC O78; experiment: qRT-PCR of QS-regulated and virulence factors genes; assay type: cell-based, avian pathogenic Escherichia coli (APEC); conditions: 100 µM, 10 h
Experimental: Quantitative real-time reverse transcription PCR (qRT-PCR). […] APEC O78 was grown in the presence of 100 µM of each compound in a 96-well plate at 37° C. for 10 h. APEC O78 culture treated with 1 µL of 100% DMSO was used as […]. Total RNA was extracted from duplicate wells for each compound (200 µL) using a miRNeasy Mini Kit (Qiagen). RNA quality and quantity was determined by nanodrop 2000 C spectrophotometer (Thermo scientific). Traces of DNA was removed using Genomic DNA removal mix (Qiagen). Approximately, 5 µg of purified RNA was used to synthesize cDNA using the Qiagen RT^2 First Strand Kit (Qiagen). The qRT-PCR was performed using SensiMix™ SYBER® Hi-Rox qPCR Master Mix (Bioline) according to manufacturer instructions in a realplex^2 mastercycler (Eppendorf) with 55° C. annealing temperature. Gene-specific primers were designed using PrimerQuest Tool and obtained from integrated DNA technologies (IDT). The data were normalized to the house-keeping gene, glyceraldehyde-3-phosphate dehydrogenase (GAPDH). The relative fold change was calculated using the ΔΔCt method. Three independent experiments were conducted.

Caco-2 cells = experiment: LDH assay of AI-2 inhibitors; conditions: Caco-2, 100 µM, 24 h
APEC O2 in HD-11 cells = experiment: Intracellular survival assay (AI-2 inhibitors); conditions: O2, HD-11, 100 µM, 6 h
[2] = system: AI-2 activity of APEC O78; experiment: AI-2 bioluminescence indicator assay (V. harveyi BB170); conditions: Escherichia coli, read-out: Inhibition % of AI-2 activity
AI-2 activity of APEC O2 = experiment: as above; conditions: Escherichia coli, read-out: Inhibition % of AI-2 activity
AI-2 activity of APEC O1 = experiment: as above; conditions: Escherichia coli, read-out: Inhibition % of AI-2 activity, APEC O1, 100 µM
AI-2 activity of APEC O8 = experiment: as above; conditions: Escherichia coli, read-out: Inhibition % of AI-2 activity, APEC O8, 100 µM
[3] = system: AI-2 activity of APEC O18; experiment: as above; conditions: Escherichia coli, read-out: Inhibition % of AI-2 activity, APEC O18, 100 µM
[4] = system: AI-2 activity of APEC O109; experiment: as above; conditions: Escherichia coli, read-out: Inhibition % of AI-2 activity
Rif^r APEC O78 [5] = experiment: Wax moth (Galleria mellonella) larva infection model (AI-2 inhibitors); conditions: 48 h post treatment
Rif^r APEC O78 [6] = experiment: In vivo screening of quorum sensing inhibitors in APEC infected broiler chickens
APEC O78 [7] = assay type: cell-based, avian pathogenic Escherichia coli (APEC); conditions: APEC O78, M63 media; cell prints MIC/MBC
APEC O1 = assay type: cell-based, avian pathogenic Escherichia coli (APEC); conditions: APEC O1, M63 media; MIC/MBC
APEC O2 = assay type: cell-based, avian pathogenic Escherichia coli (APEC); conditions: APEC O2, M63 media; MIC/MBC
APEC O8 = assay type: cell-based, avian pathogenic Escherichia coli (APEC); conditions: APEC O8, M63 media; MIC/MBC
APEC O15 = assay type: cell-based, avian pathogenic Escherichia coli (APEC); conditions: APEC O15, M63 media; MIC/MBC
APEC O18 = assay type: cell-based, avian pathogenic Escherichia coli (APEC); conditions: APEC O18, M63 media; MIC/MBC
APEC O35 = assay type: cell-based, avian pathogenic Escherichia coli (APEC); conditions: APEC O35, M63 media; MIC/MBC
APEC O115 = assay type: cell-based, avian pathogenic Escherichia coli (APEC); conditions: APEC O115, M63 media; MIC/MBC
APEC O109 = assay type: cell-based, avian pathogenic Escherichia coli (APEC); conditions: APEC O109, M63 media; MIC/MBC
APEC O78-53 = assay type: cell-based, avian pathogenic Escherichia coli (APEC); conditions: APEC O78-53, M63 media; MIC/MBC
APEC O1-63 = assay type: cell-based, avian pathogenic Escherichia coli (APEC); conditions: APEC O1-63, M63 media; MIC/MBC
APEC O2-211 = assay type: cell-based, avian pathogenic Escherichia coli (APEC); conditions: APEC O2-211, M63 media; MIC/MBC
[8] = system: biofilm embedded APEC O78; experiment: MBEC High-throughput assay; assay type: cell-based, avian pathogenic Escherichia coli (APEC)
APEC O78 [9] = experiment: Confocal microscopy bacterial cytological profiling; assay type: cell-based, avian pathogenic Escherichia coli (APEC); conditions: 2X MBC
Experimental: Confocal and scanning electron microscopy. Confocal microscopy was used for bacterial cytological profiling (BCP) to identify the cellular pathways targeted by SMs as described previously. […] After incubation, treated cultures were centrifuged, washed, and resuspended in 100 μL PBS. […] Cultures were then centrifuged, washed, and resuspended in PBS to 1⁄10th volume of the original cultures.

APEC O78 [10] = experiment: Loss of 260/280 nm absorbing materials assay; assay type: cell-based, avian pathogenic Escherichia coli (APEC); conditions: 2X MBC, 1 h, *P<0.05 vs DMSO
[11] = system: intracellular APEC O78 in Caco-2 cells; experiment: Intracellular survival assay (cidal SMs); conditions: O78, Caco-2, 6 h treatment; superscript = multiple of MIC
[12] = system: intracellular APEC O78 in HD11 cells; experiment: Intracellular survival assay (cidal SMs); conditions: O78, HD11, 6 h treatment; superscript = multiple of MIC
[13] = system: intracellular APEC O78 in THP-1 cells; experiment: Intracellular survival assay (cidal SMs); conditions: O78, THP-1, 6 h treatment; superscript = multiple of MIC
[14] = system: intracellular APEC O2 in Caco-2 cells; experiment: Intracellular survival assay (cidal SMs); conditions: O2, Caco-2, 6 h treatment; superscript = multiple of MIC
[15] = system: intracellular APEC O2 in HD11 cells; experiment: Intracellular survival assay (cidal SMs); conditions: O2, HD11, 6 h treatment; superscript = multiple of MIC
[16] = system: intracellular APEC O2 in THP-1 cells; experiment: Intracellular survival assay (cidal SMs); conditions: O2, THP-1, 6 h treatment; superscript = multiple of MIC
[17] = system: intracellular APEC O1 in Caco-2 cells; experiment: Intracellular survival assay (cidal SMs); conditions: O1, Caco-2, 6 h treatment; superscript = multiple of MIC
[18] = system: intracellular APEC O1 in HD11 cells; experiment: Intracellular survival assay (cidal SMs); conditions: O1, HD11, 6 h treatment; superscript = multiple of MIC
[19] = system: intracellular APEC O1 in THP-1 cells; experiment: Intracellular survival assay (cidal SMs); conditions: O1, THP-1, 6 h treatment; superscript = multiple of MIC
Rif^r APEC O78 [20] = experiment: In vivo efficacy of growth inhibitors in APEC infected broiler chickens
[21] = system: intracellular APEC O78, O2, and O1 in infected Caco-2, HD11, and THP1 cells; experiment: Intracellular survival assay (cidal SMs), summary over serotypes and cells; conditions: overall ranking

## O=[N+]([O-])c1cccc(S(=O)(=O)Nc2ccc(Br)cc2)c1 [C6, N-(4-bromophenyl)-3-nitrobenzenesulfonamide]
[1]
  expression of cheW: down-regulated
  expression of csrA: down-regulated
  expression of fliP: down-regulated
  expression of fpr: down-regulated
  expression of murD: down-regulated
Caco-2 cells
  toxicity (LDH): 27%
APEC O2 in HD-11 cells
  clearance of intracellular APEC: 100%
APEC O2 in HD-11 cells; vs DMSO
  reduction of intracellular survival: 3.3 logs
[2]
  inhibition at 100 µM: 92%
AI-2 activity of APEC O2
  inhibition at 100 µM: 93%
AI-2 activity of APEC O1
  inhibition at 100 µM: ≥ 75%
AI-2 activity of APEC O8
  inhibition at 100 µM: ≥ 75%
[3]
  inhibition at 100 µM: ≥ 75%
[4]
  inhibition at 100 µM: 60%
Rif^r APEC O78 [5]
  larval death: no larval death
Rif^r APEC O78 [6]; DMSO control mortality normalized to 100%
  reduction in chicken mortality: did not reduce
Rif^r APEC O78 [6]; liver, heart, lung and airsac, vs DMSO
  average lesion score reduction: 0.7-1.3
Rif^r APEC O78 [6]; oral gavage once a day, day 4 to day 8, DMSO control 66.7%
  Mortality rate (%): 66.7%
Rif^r APEC O78 [6]; vs DMSO treated control
  Reduction in APEC lesions severity, Air-sacs (%): 53.3%
  Reduction in APEC lesions severity, Heart (%): 43.8%
  Reduction in APEC lesions severity, Liver (%): 54.5%
  Reduction in APEC lesions severity, Lung (%): 66.7%

## CC(=O)OC(C(Br)C(=O)c1ccc([N+](=O)[O-])cc1)C(Cl)(Cl)Cl (stereo not drawn) [SM10]
APEC O78 [7]
  MBC: 50 µM (≈ 21.7 µg/mL)
  MIC: 25 µM (≈ 10.8 µg/mL)
APEC O1
  MBC: 25 µM (≈ 10.8 µg/mL)
  MIC: 25 µM (≈ 10.8 µg/mL)
APEC O2
  MBC: 50 µM (≈ 21.7 µg/mL)
  MIC: 25 µM (≈ 10.8 µg/mL)
APEC O8
  MBC: 50 µM (≈ 21.7 µg/mL)
  MIC: 50 µM (≈ 21.7 µg/mL)
APEC O15
  MBC: 100 µM (≈ 43.3 µg/mL)
  MIC: 50 µM (≈ 21.7 µg/mL)
APEC O18
  MBC: 100 µM (≈ 43.3 µg/mL)
  MIC: 25 µM (≈ 10.8 µg/mL)
APEC O35
  MBC: 50 µM (≈ 21.7 µg/mL)
  MIC: 25 µM (≈ 10.8 µg/mL)
APEC O115
  MBC: 50 µM (≈ 21.7 µg/mL)
  MIC: 25 µM (≈ 10.8 µg/mL)
APEC O109
  MBC: 50 µM (≈ 21.7 µg/mL)
  MIC: 25 µM (≈ 10.8 µg/mL)
APEC O78-53
  MBC: 50 µM (≈ 21.7 µg/mL)
  MIC: 25 µM (≈ 10.8 µg/mL)
APEC O1-63
  MBC: 100 µM (≈ 43.3 µg/mL)
  MIC: 50 µM (≈ 21.7 µg/mL)
APEC O2-211
  MBC: 50 µM (≈ 21.7 µg/mL)
  MIC: 25 µM (≈ 10.8 µg/mL)
[8]; at 1X MIC
  reduction of biofilms embedded APEC: significantly (P<0.05) reduced
[8]; biofilm embedded APEC O78, superscript = multiple of MIC (footnote)
  MBEC: >200 µM
APEC O78 [9]
  cytological profile (confocal, FM4-64 / SYTO-9): PG synthesis inhibitors
APEC O78 [10]; 260 nm absorbing material in supernatant
  Absorbance 260: 3.98*
APEC O78 [10]; 280 nm absorbing material in supernatant
  Absorbance 280: 2.73*
[11]
  SMs intracellular APEC clearance concentration: 100^c µM
[12]
  SMs intracellular APEC clearance concentration: 50^b µM
[13]
  SMs intracellular APEC clearance concentration: 100^c µM
[14]
  SMs intracellular APEC clearance concentration: 100^c µM
[15]
  SMs intracellular APEC clearance concentration: 100^c µM
[16]
  SMs intracellular APEC clearance concentration: 50^b µM
[17]
  SMs intracellular APEC clearance concentration: 100^c µM
[18]
  SMs intracellular APEC clearance concentration: >100 µM
[19]
  SMs intracellular APEC clearance concentration: >100 µM
Rif^r APEC O78 [20]; average of liver, heart, lung and kidney, vs untreated control
  reduction of average APEC load in internal organs: 1.3 logs
Rif^r APEC O78 [20]; oral gavage twice a day, 5 days, untreated mortality (58.34%) normalized to 100%
  reduction of APEC induced mortality: 71.42%
Rif^r APEC O78 [20]; untreated control = 100%
  reduction of APEC lesions severity (%), Air-sacs (airsacculitis): -52.9%
  reduction of APEC lesions severity (%), Heart (pericarditis): -28%
  reduction of APEC lesions severity (%), Liver (perihepatitis): 20%
  reduction of APEC lesions severity (%), Lung (lung congestion): 0%
Rif^r APEC O78 [20]; vs untreated control
  reduction of APEC load, Heart: 1.0 log CFU/g of tissues
  reduction of APEC load, Kidney: 2.4 log CFU/g of tissues
  reduction of APEC load, Liver: 0.8 log CFU/g of tissues
  reduction of APEC load, Lung: 1.4 log CFU/g of tissues
Rif^r APEC O78 [20]; weight of live chickens before necropsy minus weight before treatment
  Body weight gain (BWG): 220.75±38.93
[21]
  effectiveness in clearing intracellular APEC serotypes in all tested cells: most effective
